Patent US20230227447A1, “BENZYLAMINE DERIVATIVES AS DDRS INHIBITORS” (CHIESI FARMACEUTICI S.P.A., priority 2020, published 2023)
Structures can show the parent of a compound that is named as a salt.

Legend:
[1] = biological target: T1, DDR2 (Homo sapiens, UniProt Q16832); test: DDR2 binding assay (LanthaScreen Europium Kinase Binding assay); parameters: purchased Life Technologies; details: 5 nM DDR2, 10 nM Kinase Tracer 178, 1 hour at room temperature; Ki from IC50 by Cheng-Prusoff
T1 sequence (Q16832 22-855): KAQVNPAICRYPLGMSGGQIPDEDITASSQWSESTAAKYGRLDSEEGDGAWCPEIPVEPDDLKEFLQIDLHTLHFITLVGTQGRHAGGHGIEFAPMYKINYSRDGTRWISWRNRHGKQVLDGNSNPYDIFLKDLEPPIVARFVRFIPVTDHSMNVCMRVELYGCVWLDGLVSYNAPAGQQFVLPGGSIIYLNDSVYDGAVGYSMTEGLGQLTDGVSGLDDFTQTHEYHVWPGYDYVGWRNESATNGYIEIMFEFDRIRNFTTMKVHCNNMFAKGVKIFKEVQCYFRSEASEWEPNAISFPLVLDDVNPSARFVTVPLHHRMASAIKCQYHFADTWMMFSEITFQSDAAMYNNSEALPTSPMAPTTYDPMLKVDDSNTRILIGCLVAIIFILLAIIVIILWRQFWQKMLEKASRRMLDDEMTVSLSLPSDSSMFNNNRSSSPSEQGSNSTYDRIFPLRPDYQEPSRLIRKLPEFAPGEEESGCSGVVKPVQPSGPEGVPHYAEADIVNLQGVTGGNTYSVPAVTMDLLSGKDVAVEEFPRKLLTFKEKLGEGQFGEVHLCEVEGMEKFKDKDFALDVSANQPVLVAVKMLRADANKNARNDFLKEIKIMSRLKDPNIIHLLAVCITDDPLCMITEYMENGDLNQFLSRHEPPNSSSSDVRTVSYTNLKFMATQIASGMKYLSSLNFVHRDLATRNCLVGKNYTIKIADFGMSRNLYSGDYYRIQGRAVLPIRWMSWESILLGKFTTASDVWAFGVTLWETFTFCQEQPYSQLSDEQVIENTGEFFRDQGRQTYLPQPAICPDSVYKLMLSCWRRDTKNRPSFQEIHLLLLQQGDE
Procedure: (§1) DDR1 and DDR2 binding assays were performed using Life Technologies LanthaScreen™ Europium Kinase Binding assay. The compounds were incubated with 5 nM DDR1 (Carna Biosciences) or 5 nM DDR2 (Life Technologies) for 1 hour at room temperature in white 384-well OptiPlate (PerkinElmer), containing 20 nM or 10 nM Kinase Tracer 178 respectively and 2 nM Europium labelled anti-GST antibody (Life Technologies) in assay buffer (50 mM HEPES pH 7.5, 10 mM MgCl2, 1 mM EGTA and 0.01% BRIJ35).
(§2) The ratio of fluorescence emission 665 nm/615 nm after excitation at 340 nm was obtained using the Tecan Spark 20M plate reader. IC50 values were determined in GraphPad Prism 7.0 software, using 4 parameter model: log(inhibitor) vs. response. IC50 values were converted in Ki using the Cheng-Prusoff equation (Ki=IC50/(1+[Tracer]/Kd).

[2] = biological target: T1, DDR2; test: DDR2 cell based assay (phospho-ELISA in HEK293T-DDR2 recombinant cells); parameters: expressed in transfected cells; host or cells: HEK293T-DDR2 recombinant cells; details: bovine Type II Collagen 50 μg/ml
Procedure: The inhibition of DDR2 phosphorylation by compounds was evaluated in HEK293T-DDR2 recombinant cells by phospho-ELISA assay. Briefly, HEK293T-DDR2 cells were seeded in poly-D-lysine-coated 24-well plates at a density of 250.000 cells/well and incubated for 1.5 hours at 37° C. and 5% CO2 in DMEM+10% FBS. After that, the medium was changed to serum-free DMEM and cells were incubated for 3 hours. Then. test compounds were added at different concentrations 30 minutes before stimulation with bovine Type II Collagen at 50 μg/ml for further 3 hours. For DDR2 phospho-ELISA assay (DuoSet IC Human Phospho-DDR2; R&D Systems), protein extracts were obtained by adding 60 μl/well of lysis buffer prepared according to the manufacturer's instructions. Protein concentration in the samples was determined by BCA assay and the levels of phospho-DDR2 were determined following R&D Systems indications. Raw data were normalized to maximal inhibition control (0% for normalization) and positive control (100% for normalization; cells treated with […] collagen II) and IC50 parameters were calculated in GraphPad Prism 8.0 software, using sigmoidal dose-response curve fitting with variable slope.

[3] = biological target: T2, DDR1 (Homo sapiens, UniProt Q08345); test: DDR1 binding assay (LanthaScreen Europium Kinase Binding assay); parameters: purchased Carna Biosciences; details: 5 nM DDR1, 20 nM Kinase Tracer 178, 1 hour at room temperature; Ki from IC50 by Cheng-Prusoff
T2 sequence (Q08345 19-913): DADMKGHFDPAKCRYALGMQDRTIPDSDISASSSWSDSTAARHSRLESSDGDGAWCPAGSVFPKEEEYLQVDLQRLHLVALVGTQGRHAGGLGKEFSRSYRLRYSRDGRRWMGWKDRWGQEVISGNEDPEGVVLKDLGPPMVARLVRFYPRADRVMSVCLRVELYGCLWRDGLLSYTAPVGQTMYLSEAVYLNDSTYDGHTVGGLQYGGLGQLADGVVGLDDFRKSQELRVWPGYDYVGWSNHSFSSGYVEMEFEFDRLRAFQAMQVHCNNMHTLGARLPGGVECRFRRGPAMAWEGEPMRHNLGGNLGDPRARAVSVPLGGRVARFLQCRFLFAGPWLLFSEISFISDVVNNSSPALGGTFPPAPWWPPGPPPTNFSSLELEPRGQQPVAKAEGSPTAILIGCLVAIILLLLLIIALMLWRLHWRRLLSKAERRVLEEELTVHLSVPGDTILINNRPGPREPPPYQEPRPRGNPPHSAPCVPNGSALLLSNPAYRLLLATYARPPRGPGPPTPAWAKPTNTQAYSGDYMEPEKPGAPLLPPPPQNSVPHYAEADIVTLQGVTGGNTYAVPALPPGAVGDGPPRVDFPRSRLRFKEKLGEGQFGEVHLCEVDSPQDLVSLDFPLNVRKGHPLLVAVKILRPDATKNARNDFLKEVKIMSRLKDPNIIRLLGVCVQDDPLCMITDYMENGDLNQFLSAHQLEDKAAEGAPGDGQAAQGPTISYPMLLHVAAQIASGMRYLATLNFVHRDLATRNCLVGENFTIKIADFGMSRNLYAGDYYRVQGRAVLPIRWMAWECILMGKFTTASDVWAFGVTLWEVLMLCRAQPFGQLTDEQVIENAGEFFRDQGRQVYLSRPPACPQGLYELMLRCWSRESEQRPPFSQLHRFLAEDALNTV
Procedure: as §1, §2

[4] = biological target: T2, DDR1; test: DDR1 cell based assay (PathHunter U2OS DDR1 assay); parameters: host or cells: U2OS-DDR1; details: U2OS-DDR1 cells, bovine Type II Collagen 20 μg/ml, luminescence
Procedure: The inhibition of DDR1 receptor activation by compounds was evaluated by PathHunter® U2OS DDR1 assay (Eurofins DiscoverX), according to the manufacturer's instructions. Briefly, U2OS-DDR1 cells were seeded in white 384-well plates at a density of 5000 cells/well and incubated for 2 hours at 37° C. and 5% CO2. Cells were then treated with compounds at different concentrations and incubated for 30 minutes, before stimulation with bovine Type II Collagen 20 μg/ml and incubation overnight at 37° C. and 5% CO2. PathHunter Detection Reagents were prepared according to the protocol provided by DiscoverX and 20 μl/well of this mix were added to each well. After incubating the plates for 1 hour at room temperature in the dark, luminescence signal was acquired with a plate reader. Raw data were normalized to vehicle control (0% for normalization) and positive control (100% for normalization; cells treated with 20 μg/ml collagen II) and IC50 parameters were calculated in GraphPad Prism 8.0 software, using sigmoidal dose-response curve fitting with variable slope.

Row | Compound | Ki [1] | IC50 [2] | Ki [3] | IC50 [4]
1 | Cc1cn(-c2cc(NC(=O)c3ccc(C)c(CNc4cncnc4)c3)cc(C(F)(F)F)c2)cn1 [Example 20, 4-methyl-N-(3-(4-methyl-1H-imidazol-1-yl)-5-(trifluoromethyl)phenyl)-3-((pyrimidin-5-ylamino)methyl)benzamide] | < 30 nM | 10 to 15 nM | < 30 nM | < 10 nM
2 | Cc1ccc(C(=O)Nc2cccc(OC(F)(F)F)c2)cc1CNc1cncnc1 [Example 37, 4-methyl-3-((pyrimidin-5-ylamino)methyl)-N-(3-(trifluoromethoxy)phenyl)benzamide] | < 30 nM | 10 to 15 nM | < 30 nM | < 10 nM
3 | O=C(Nc1cccc(OC(F)(F)F)c1)c1ccc(F)c(CNc2cnc3[nH]ccc3c2)c1 [Example 38, 3-(((1H-pyrrolo[2,3-b]pyridin-5-yl)amino)methyl)-4-fluoro-N-(3-(trifluoromethoxy)phenyl)benzamide] | < 30 nM | 10 to 15 nM | < 30 nM | < 10 nM
4 | COc1ccc(NC(=O)c2ccc(C)c(CNc3cncnc3)c2)cc1C(F)(F)F [Example 31, N-(4-methoxy-3-(trifluoromethyl)phenyl)-4-methyl-3-((pyrimidin-5-ylamino)methyl)benzamide] | < 30 nM | < 10 nM | < 30 nM | < 10 nM
5 | Cc1cn(-c2cc(NC(=O)c3ccc(C)c(CNC4CNc5ccnn5C4)c3)cc(C(F)(F)F)c2)cn1 (stereo not shown) [Example 6, 4-methyl-N-(3-(4-methyl-1H-imidazol-1-yl)-5-(trifluoromethyl)phenyl)-3-(((4,5,6,7-tetrahydropyrazolo[1,5-a]pyrimidin-6-yl)amino)methyl)benzamide] | 300 to 1000 nM |  | 300 to 1000 nM | 
6 | Cc1ccc(C(=O)Nc2cc(CN3CCN(C)CC3)cc(C(F)(F)F)c2)cc1CNc1cnc2ccnn2c1 [Example 18, 4-methyl-N-(3-((4-methylpiperazin-1-yl)methyl)-5-(trifluoromethyl)phenyl)-3-((pyrazolo[1,5-a]pyrimidin-6-ylamino)methyl)benzamide] | 30 to 300 nM |  | < 30 nM | 
7 | Cc1ccc(C(=O)Nc2cccc(C(F)(F)F)c2)cc1CNc1cncnc1 [Example 32, 4-methyl-3-((pyrimidin-5-ylamino)methyl)-N-(3-(trifluoromethyl)phenyl)benzamide] | < 30 nM | < 10 nM | < 30 nM | < 10 nM
8 | Cc1ccc(NC(=O)c2cc(CN3CCN(C)CC3)cc(C(F)(F)F)c2)cc1CNc1cncnc1 [Example 9, N-(4-methyl-3-((pyrimidin-5-ylamino)methyl)phenyl)-3-((4-methylpiperazin-1-yl)methyl)-5-(trifluoromethyl)benzamide] | < 30 nM |  | < 30 nM | 
9 | CCCc1ccc(C(=O)Nc2cc(CN3CCN(C)CC3)cc(C(F)(F)F)c2)cc1CNc1cncnc1 [Example 29, N-(3-((4-methylpiperazin-1-yl)methyl)-5-(trifluoromethyl)phenyl)-4-propyl-3-((pyrimidin-5-ylamino)methyl)benzamide] | 30 to 300 nM |  | < 30 nM | 
10 | Cc1ccc(C(=O)Nc2cccc(C(F)(F)F)c2)cc1CNc1cccnc1 [Example 34, 4-methyl-3-((pyridin-3-ylamino)methyl)-N-(3-(trifluoromethyl)phenyl)benzamide] | < 30 nM | < 10 nM | < 30 nM | < 10 nM
11 | CNC(=O)c1cc(CNCc2cc(NC(=O)c3cc(CN4CCN(C)CC4)cc(C(F)(F)F)c3)ccc2C)ccn1 [Example 14, N-methyl-4-(((2-methyl-5-(3-((4-methylpiperazin-1-yl)methyl)-5-(trifluoromethyl)benzamido)benzyl)amino)methyl)picolinamide] | 30 to 300 nM |  | 30 to 300 nM | 
12 | Cc1cn(-c2cc(NC(=O)c3ccc(C)c(CNc4ccc5ncsc5c4)c3)cc(C(F)(F)F)c2)cn1 [Example 3, 3-((benzo[d]thiazol-6-ylamino)methyl)-4-methyl-N-(3-(4-methyl-1H-imidazol-1-yl)-5-(trifluoromethyl)phenyl)benzamide] | 30 to 300 nM |  | 30 to 300 nM | 
13 | O=C(Nc1cccc(C(F)(F)F)c1)c1ccc(F)c(CNc2cnc3[nH]ccc3c2)c1 [Example 33, 3-(((1H-pyrrolo[2,3-b]pyridin-5-yl)amino)methyl)-4-fluoro-N-(3-(trifluoromethyl)phenyl)benzamide] | < 30 nM |  | < 30 nM | 
14 | Cc1ccc(C(=O)Nc2cc(CN3CCN(C)CC3)cc(C(F)(F)F)c2)cc1CNc1cncnc1 [Example 19, 4-methyl-N-(3-((4-methylpiperazin-1-yl)methyl)-5-(trifluoromethyl)phenyl)-3-((pyrimidin-5-ylamino)methyl)benzamide] | < 30 nM |  | < 30 nM | 
15 | CCCc1ccc(C(=O)Nc2cc(CN3CCN(C)CC3)cc(C(F)(F)F)c2)cc1CNC(=O)c1cnc2ccccn12 [Example 28, N-(5-((3-((4-methylpiperazin-1-yl)methyl)-5-(trifluoromethyl)phenyl)carbamoyl)-2-propylbenzyl)imidazo[1,2-a]pyridine-3-carboxamide formate salt] | 300 to 1000 nM |  | 300 to 1000 nM | 
16 | Cn1ccc(-c2cncc(NCc3cc(C(=O)Nc4cccc(OC(F)(F)F)c4)ccc3F)c2)n1 [Example 35, 4-fluoro-3-(((5-(1-methyl-1H-pyrazol-3-yl)pyridin-3-yl)amino)methyl)-N-(3-(trifluoromethoxy)phenyl)benzamide] | < 30 nM | < 10 nM | < 30 nM | < 10 nM
